Experimental data as given in paper PMC10055976, “Selection and evolution of disulfide-rich peptides via cellular protein quality control” (Chemical Science, 2023).
Where a SMILES comes first, the peptide text is derived from it. Bridges are numbered along the chain shown (N, C = ends).

Tests used:
[1] = target: T1, Keap1 kelch domain protein (Residues 321-609) (Homo sapiens, UniProt Q14145); test: Surface plasmon resonance (SPR) assay of oxidized peptides; assay type: binding; details: for Binding affinity to Keap1 (in words): major oxidized product, SPR, preliminary; for Binding affinity to Keap1 (in words) / SPR sensorgrams: binding of Keap1 (in words): 25 °C, pH 7.4; for SPR sensorgrams: binding of Keap1 (in words): oxidized peptide, HPLC purity >95%
T1 construct: Keap1 kelch domain protein (Residues 321-609, Homo Sapiens); made in house
T1 sequence (Q14145 321-609): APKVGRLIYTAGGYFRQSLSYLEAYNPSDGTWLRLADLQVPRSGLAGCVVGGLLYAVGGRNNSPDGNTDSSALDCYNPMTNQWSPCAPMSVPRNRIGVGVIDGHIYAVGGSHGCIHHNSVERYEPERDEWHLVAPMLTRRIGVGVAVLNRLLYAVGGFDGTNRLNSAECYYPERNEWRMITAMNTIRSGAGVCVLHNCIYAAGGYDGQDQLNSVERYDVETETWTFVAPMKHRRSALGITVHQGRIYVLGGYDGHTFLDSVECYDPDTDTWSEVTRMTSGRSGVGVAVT

[2] = Oxidative folding of peptides (HPLC); assay type: physicochemical; details: drp1 and drp4: 10 μM, 100 mM phosphate pH 7.4, 0.2 mM GSSG, drp2, drp3, k-1, k-2: 10 μM, same buffer with 6 M Gu·HCl and 0.2 mM GSSG, overnight, 37 °C
Text: (§1) We then deep-sequenced the DRPs enriched in P9, and a total of ∼1404 different sequences with the expected cysteine patterns were obtained (3 different scaffolds: 256, 742 and 406, respectively; dataset S3 and Fig. 4a). Sequences with stop codon(s) are very rare compared to that found in the previous selection (dataset S4), further confirming the success of the second-generation PQC-select. […] To chemically examine the foldability of the selected DRPs, four sequences were randomly selected for synthesis and oxidation. All of them can be specifically oxidized to a major product as determined using HPLC (Fig. 4b and S7 ^†). […] The disulfide pairing of drp1 was clearly shown by the ^1H–^1H NOESY spectra (Fig. S10 ^†).
Fig. 4 Identification and application of new DRPs selected from the second-generation PQC-select. (a) Top 5 enriched sequences for the three different scaffolds obtained from the second-generation PQC-select, scaffold M-2 (top), scaffold M-6 (middle) and scaffold M-9 (bottom). (b) HPLC chromatograms showing the oxidation of drp1, drp2, drp3 and drp4 in phosphate buffers (pH 7.4, 100 mM) containing 0.2 mM GSSG or 6 M Gu·HCl and 0.2 mM GSSG. […]
Reduced peptides (drp1 and 4, 10 μM) was dissolved in 100 mM phosphate buffer (pH 7.4) containing 0.2 mM GSSG. […] After that, oxidative folding of all the peptides was further analysed using HPLC and mass spectrometry . […]

[3] = Solution NMR structure and disulfide pairing of drp1; assay type: physicochemical; details: oxidized drp1, ~1 mM, 80% perdeuterated acetonitrile / 20% H2O, 302 K
Text: as §1, with “S10 ^†). […]” for “S10 ^†).”
without target protein were then added to half of the blocked phage respectively and incubated for 30 min on a rotating wheel. […]
Reduced peptides (drp1 and 4, 10 μM) was dissolved in 100 mM phosphate buffer (pH 7.4) containing 0.2 mM GSSG. […] After that, oxidative folding of all the peptides was further analysed using HPLC and mass spectrometry .
Drp1 were dissolved in 80% perdeuterated acetonitrile and 20% H2O at a final concentration of about 1 mM . […] Two dimensional (2D) 1H, 15N/13C HSQC spectra were recorded to obtain chemical shifts of heavy atoms […]
in backbone and side-chains. […] The NMR data were processed using NMRPipe/NMRDraw and analyzed using NMRFAM-SPARKY5. […]

Row | Folding in solution by 1H–1H TOCSY (in words) [3] | Molecule | Binding affinity to Keap1 (in words) [1] | SPR sensorgrams: binding of Keap1 (in words) ([1]; 50-3200 nM) | Oxidative folding outcome (in words) [2] | Kd ([1]; oxidized product (major), Biacore T200, 25 °C, biotinylated Keap1 on CAP chip, 10 mM phosphate pH 7.4, 50 μM EDTA, 0.05% Tween 20, 50-3200 nM, multiple cycle kinetics, 1:1 binding model, read-out: KD (equilibrium dissociation constant, SPR)) [nM] | kon ([1]; oxidized product, Biacore T200, 25 °C, 10 mM phosphate pH 7.4, 50 μM EDTA, 0.05% Tween 20, multiple cycle kinetics, 1:1 binding model, local fit, read-out: ka (association rate constant)) [M⁻¹ s⁻¹] | koff ([1]; oxidized product, Biacore T200, 25 °C, 10 mM phosphate pH 7.4, 50 μM EDTA, 0.05% Tween 20, multiple cycle kinetics, 1:1 binding model, local fit, read-out: kd (dissociation rate constant)) [s⁻¹] | 3D structure and disulfide pairing by NMR (in words) ([3]; PDB 8GUC, 15 lowest-energy structures)
1 | – | H-WCPPCRFTLSPETGECQGTKRPIRAMCNDSVPCPPC-NH2 (also: bicyclic or more (positions not given here)) [k-2] | submicromolar range | in a concentration-dependent manner | can be oxidized to a major product | – | – | – | –
2 | – | CC[C@H](C)[C@@H]1NC(=O)[C@@H]2CCCN2C(=O)[C@H](CCCNC(=N)N)NC(=O)[C@H](CCCNC(=N)N)NC(=O)[C@H]([C@@H](C)O)NC(=O)CNC(=O)[C@H](CCC(N)=O)NC(=O)[C@@H]2CSSC[C@H](NC(=O)[C@H](CCSC)NC(=O)[C@H](C)NC(=O)[C@H](CCCNC(=N)N)NC1=O)C(=O)N[C@@H](CC(N)=O)C(=O)N[C@@H](CC(=O)O)C(=O)N[C@@H](CO)C(=O)N[C@@H](C(C)C)C(=O)N1CCC[C@H]1C(=O)N[C@H]1CSSC[C@H](NC(=O)[C@@H](N)Cc3c[nH]c4ccccc34)C(=O)N3CCC[C@H]3C(=O)N3CCC[C@H]3C(=O)N[C@@H](CSSC[C@@H](C(N)=O)NC(=O)[C@@H]3CCCN3C(=O)[C@@H]3CCCN3C1=O)C(=O)N[C@@H](CCCNC(=N)N)C(=O)N[C@@H](Cc1ccccc1)C(=O)N[C@@H]([C@@H](C)O)C(=O)N[C@@H](CC(C)C)C(=O)N[C@@H](CO)C(=O)N[C@@H](CCC(=O)O)C(=O)N[C@@H](CCC(=O)O)C(=O)N[C@@H]([C@@H](C)O)C(=O)NCC(=O)N[C@@H](CCC(=O)O)C(=O)N2 [k-1] (H-WCPPCRFTLSEETGECQGTRRPIRAMCNDSVPCPPC-NH2; disulfide 2-33, 5-36, 16-27 (inferred)) | submicromolar range | in a concentration-dependent manner | can be oxidized to a major product | 349 | 54800 | 0.0191 | –
3 | well-folded in solution | H-GCPPCRFTLSPWVSPCSNPHWPIRAMCNDSVPCPPC-NH2 (also: bicyclic or more (positions not given here)) [drp1, CPPC disulfide-rich peptide selected by PQC-select; PDB 8GUC] | – | – | – | – | – | – | irregular but rigid loops and a short α-helix constrained through three disulfide bonds with the two CPPC motifs paired parallelly
